Laboratory results taken from US10919856B2 (priority 2016, dated 2021).
Structures can show the parent of a compound that is named as a salt.

How the values were obtained:
[1] = target: influenza virus neuraminidase (wild-type) (Influenza A virus, UniProt Q9IGQ6); type: biochemical
influenza = settings: in vivo; cited from earlier work

Chain of influenza virus neuraminidase (wild-type) (Q9IGQ6 whole entry, looked up): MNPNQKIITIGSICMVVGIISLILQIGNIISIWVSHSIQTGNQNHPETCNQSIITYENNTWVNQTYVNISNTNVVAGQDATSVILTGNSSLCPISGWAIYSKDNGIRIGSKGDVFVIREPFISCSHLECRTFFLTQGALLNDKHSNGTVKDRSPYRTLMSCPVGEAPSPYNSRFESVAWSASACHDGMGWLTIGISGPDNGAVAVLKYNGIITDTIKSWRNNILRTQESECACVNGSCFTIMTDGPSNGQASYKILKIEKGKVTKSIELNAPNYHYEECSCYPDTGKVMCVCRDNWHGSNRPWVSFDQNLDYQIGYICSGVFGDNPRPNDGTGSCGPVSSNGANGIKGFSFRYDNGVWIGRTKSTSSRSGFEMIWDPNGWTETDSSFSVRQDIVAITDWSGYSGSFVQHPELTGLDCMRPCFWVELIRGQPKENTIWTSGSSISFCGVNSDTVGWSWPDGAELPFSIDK

SMILES | inhibiting activity on wild-type virus strains [1] | reduction of severity level of influenza symptoms (influenza) | shortening of the state of illness (influenza)
COCCO[C@@H]1CCCN([C@@H]2C=C(C(=O)O)C[C@H](NC(=N)N)[C@H]2NC(C)=O)C1 [Example 11, (3R,4R,5S)-4-acetamido-5-guanidino-3-((3S)-(2-methoxylethyoxyl)piperidin)-1-cyclohexene-1-carboxylic acid trifluoroacetate] | perfect inhibiting activities | – | –
COCCO[C@@H]1CCCN([C@@H]2C=C(C(=O)O)C[C@H](N)[C@H]2NC(C)=O)C1 [Example 1, (3R,4R,5S)-4-acetamido-5-amino-3-((3S)-3-(2-methoxylethoxyl)piperidin)-1-cyclohexene-1-carboxylic acid trifluoroacetate] | perfect inhibiting activities | – | –
CCOC(=O)C1=C[C@@H](OC(CC)CC)[C@H](NC(C)=O)[C@@H](N)C1.O=P(O)(O)O [Oseltamivir phosphate, ethyl (3R,4R,5S)-4-acetamido-5-amino-3-(1-ethylpropoxyl)-1-cyclohexene-1-carboxylate phosphate] | – | 40% | 3.1 days
